Reference: patent publication US9018242B2, “Salt form of tyrosine kinase inhibitor” (Jiangsu Simcere Pharmaceutical R&D Co., Ltd, priority 2011, dated 2015)

Tests used:
[1] = Hygroscopicity measurement (weight gain); assay type: physicochemical; conditions: 25±1° C., relative humidity 80±2%, 24 hours
Procedure: The method for measuring the hygroscopicity may include: placing a certain amount of a sample to be tested into a precisely weighed glass weighing bottle (m1) with a plug and precisely weighing (m2); placing the opened weighing bottle into a thermostatic dryer (with saturated ammonium sulfate solution placed at the bottom, with a relative humidity of 80±2%) at 25±1° C. for 24 hours; covering the weighing bottle with the plug and precisely weighing (m3), and calculating the percent of weight gain of the sample to be tested according to the following equation: […]
The measurement method includes: placing a certain amount of sample to be tested into a precisely weighed glass weighing bottle (m1) with a plug and precisely weighing (m2); placing the opened weighing bottle in a thermostated dryer (with saturated ammonium sulfate solution placed at the bottom, with a relative humidity of 80±2%) at 25±1° C. for 24 hours; covering the weighing bottle with the plug and precisely weighing (m3).
Characterization of the hygroscopicity and definition of the hygroscopic weight gain:
Deliquescence: sufficient moisture was absorbed to form liquid;
Slight hygroscopicity: hygroscopic weight gain was less than 2% and not less than 0.2%: […]

[2] = Solubility in water by HPLC; assay type: physicochemical; conditions: purified water, 25° C.; for solubility at 30 min: thermodynamic from solid
Procedure: Liquid chromatograph: Agilent 1200 HPLC system (diode array detector), ChemStation
Mobile phase: acetonitrile/water
Detection wavelength: 264 nm
About 100 mg sample to be tested was precisely weighed and placed into a 100 ml graduated flask at 25° C.; an appropriate amount of solvent [acetonitrile/water (80:20)] was added to dissolve the sample under ultrasonic sound, and the solution was diluted to a given scale and shaken up; 10 μl resulting solution was precisely measured and loaded into the liquid chromatograph, the chromatogram was recorded, and the peak area Scontrol was measured.
10 ml purified water was measured and placed into a 25 ml Kjeldahl flask. The sample to be tested was gradually added at 25° C. until an insoluble solid appeared in the solution. The solution was treated under ultrasonic sound for 30 min and the insoluble solid was filtered off. 10 μl filtrate was precisely weighed and loaded into the liquid chromatograph, the chromatogram was recorded, and the peak area Stest was measured.

[3] = Plasma exposure (AUC) in rats after gavage administration; assay type: in vivo; conditions: rat, po, male SD rats, 10 mg/kg (based on pharmaceutically active compound), salts dissolved in pure water, active compound as suspension in 0.5% CMC, up to 24 h
Procedure: Laboratory animal: male SD rats
Dosage: 10 mg/kg (based on pharmaceutically active compound)
Formulation for salts: dissolving in pure water
(§1) Formulation for pharmaceutically active compound: suspension in CMC (carboxymethylcellulose), 0.5%
Animal Grouping and Testing Course:
Each group includes three male rats having a weight of 180 to 210 g. Gavage administration was performed; the blood was collected at point of time: 5 min, 15 min, 30 min, 45 min, 1 h, 2 h, 4 h, 6 h, 10 h and 24 h; about 250 μl blood was collected from orbital venous plexus into a heparin-containing tube, centrifuged, and 100 μl plasma was used for LC-MS analysis.

[4] = tested on: human colon cancer HT-29 xenografts; assay: Therapeutic effect on human colon cancer HT-29 xenografts in nude mice; assay type: in vivo, BALB/cA-nude mice; conditions: 40 mg/kg (based on pharmaceutically active compound), gavage for 21 days, L-malate in pure water, active compound as suspension in 0.5% CMC
Procedure: Laboratory animal: BALB/cA-nude mice, 6-7 weeks, ♀
Dosage: 40 mg/kg (based on pharmaceutically active compound)
Formulation for L-malate: dissolving in pure water
as §1
Nude mice were subcutaneously inoculated with human colon cancer HT-29 cells. After the tumor grew to a size of 150 to 250 mm^3, the animals were randomly divided into three groups (d0). The animals were continuously administered through gavage for 21 days, and the tumor volume was measured 2 to 3 times per week. The tumor volume (V) was calculated according to the equation: V=1/2×a×b^2, where a and b represent length and width respectively.
The relative proliferation of tumor=T/C(%)=(T−T0)/(C−C0)×100, where T and C are the tumor volumes at the end of experiment, T0 and C0 are the tumor volumes at the start of experiment; the tumor inhibition rate=1−T/C(%).

CC(=O)O.CCN(CC)CCNC(=O)c1c(C)[nH]c2c1CCC/C2=C1/C(=O)Nc2ccc(F)cc21 [Acetate, (Z)—N-[2-(diethylamino)ethyl]-2-methyl-7-(1,2-dihydro-5-fluoro-2-oxo-3H-indol-3-ylidene)-4,5,6,7-tetrahydro-1H-indol-3-carboxamide acetate]
Hygroscopicity [1]: Strong hygroscopicity (hygroscopic weight gain was not less than 15%)
solubility at 30 min [2]: 30.7 mg/mL

CCN(CC)CCNC(=O)c1c(C)[nH]c2c1CCC/C2=C1/C(=O)Nc2ccc(F)cc21.O=S(=O)(O)c1ccccc1 [Benzenesulfonate, (Z)—N-[2-(diethylamino)ethyl]-2-methyl-7-(1,2-dihydro-5-fluoro-2-oxo-3H-indol-3-ylidene)-4,5,6,7-tetrahydro-1H-indol-3-carboxamide benzenesulfonate]
Hygroscopicity [1]: Hygroscopicity (hygroscopic weight gain was less than 15% and not less than 2%)
solubility at 30 min [2]: 19.2 mg/mL

CCN(CC)CCNC(=O)c1c(C)[nH]c2c1CCC/C2=C1/C(=O)Nc2ccc(F)cc21.O=C(O)CC(O)(CC(=O)O)C(=O)O [Citrate, (Z)—N-[2-(diethylamino)ethyl]-2-methyl-7-(1,2-dihydro-5-fluoro-2-oxo-3H-indol-3-ylidene)-4,5,6,7-tetrahydro-1H-indol-3-carboxamide citrate]
AUC(0-t) [3]: 838 ng·h/mL
Hygroscopicity [1]: Slight hygroscopicity (hygroscopic weight gain was less than 2% and not less than 0.2%)
solubility at 30 min [2]: 38.2 mg/mL

CCN(CC)CCNC(=O)c1c(C)[nH]c2c1CCC/C2=C1/C(=O)Nc2ccc(F)cc21.O=C(O)/C=C/C(=O)O [Fumarate, (Z)—N-[2-(diethylamino)ethyl]-2-methyl-7-(1,2-dihydro-5-fluoro-2-oxo-3H-indol-3-ylidene)-4,5,6,7-tetrahydro-1H-indol-3-carboxamide fumarate]
Hygroscopicity [1]: Slight hygroscopicity (hygroscopic weight gain was less than 2% and not less than 0.2%)
solubility at 30 min [2]: 0.0168 mg/mL

Br.CCN(CC)CCNC(=O)c1c(C)[nH]c2c1CCC/C2=C1/C(=O)Nc2ccc(F)cc21 [Hydrobromate, (Z)—N-[2-(diethylamino)ethyl]-2-methyl-7-(1,2-dihydro-5-fluoro-2-oxo-3H-indol-3-ylidene)-4,5,6,7-tetrahydro-1H-indol-3-carboxamide hydrobromate]
Hygroscopicity [1]: Almost no hygroscopicity
Solubility in Water [2]: 3.5922 mg/mL

CCN(CC)CCNC(=O)c1c(C)[nH]c2c1CCC/C2=C1/C(=O)Nc2ccc(F)cc21.Cl [Hydrochloride, (Z)—N-[2-(diethylamino)ethyl]-2-methyl-7-(1,2-dihydro-5-fluoro-2-oxo-3H-indol-3-ylidene)-4,5,6,7-tetrahydro-1H-indol-3-carboxamide hydrochloride]
AUC(0-t) [3]: 185 ng·h/mL
Hygroscopicity [1]: Almost no hygroscopicity
solubility at 30 min [2]: 22.8 mg/mL

CCN(CC)CCNC(=O)c1c(C)[nH]c2c1CCC/C2=C1/C(=O)Nc2ccc(F)cc21.O=C(O)C[C@H](O)C(=O)O [L-malate, (Z)—N-[2-(diethylamino)ethyl]-2-methyl-7-(1,2-dihydro-5-fluoro-2-oxo-3H-indol-3-ylidene)-4,5,6,7-tetrahydro-1H-indol-3-carboxamide L-malate]
AUC(0-t) [3]: 1490 ng·h/mL
Tumor Inhibition Rate [4]: 54%
Hygroscopicity [1]: Almost no hygroscopicity
solubility at 30 min [2]: 38.6 mg/mL

CCN(CC)CCNC(=O)c1c(C)[nH]c2c1CCC/C2=C1/C(=O)Nc2ccc(F)cc21.O=C(O)C(O)C(O)C(=O)O [L-tartrate, (Z)—N-[2-(diethylamino)ethyl]-2-methyl-7-(1,2-dihydro-5-fluoro-2-oxo-3H-indol-3-ylidene)-4,5,6,7-tetrahydro-1H-indol-3-carboxamide L-tartrate]
Hygroscopicity [1]: Slight hygroscopicity (hygroscopic weight gain was less than 2% and not less than 0.2%)
solubility at 30 min [2]: 10.6 mg/mL

CC(O)C(=O)O.CCN(CC)CCNC(=O)c1c(C)[nH]c2c1CCC/C2=C1/C(=O)Nc2ccc(F)cc21 [Lactate, (Z)—N-[2-(diethylamino)ethyl]-2-methyl-7-(1,2-dihydro-5-fluoro-2-oxo-3H-indol-3-ylidene)-4,5,6,7-tetrahydro-1H-indol-3-carboxamide lactate]
AUC(0-t) [3]: 652 ng·h/mL
Hygroscopicity [1]: Hygroscopicity (hygroscopic weight gain was less than 15% and not less than 2%)
solubility at 30 min [2]: 24 mg/mL

CCN(CC)CCNC(=O)c1c(C)[nH]c2c1CCC/C2=C1/C(=O)Nc2ccc(F)cc21.O=C(O)/C=C\C(=O)O [Maleate, (Z)—N-[2-(diethylamino)ethyl]-2-methyl-7-(1,2-dihydro-5-fluoro-2-oxo-3H-indol-3-ylidene)-4,5,6,7-tetrahydro-1H-indol-3-carboxamide maleate]
Hygroscopicity [1]: Slight hygroscopicity (hygroscopic weight gain was less than 2% and not less than 0.2%)
solubility at 30 min [2]: 1.32 mg/mL

CCN(CC)CCNC(=O)c1c(C)[nH]c2c1CCC/C2=C1/C(=O)Nc2ccc(F)cc21.CS(=O)(=O)O [Methanesulfonate, (Z)—N-[2-(diethylamino)ethyl]-2-methyl-7-(1,2-dihydro-5-fluoro-2-oxo-3H-indol-3-ylidene)-4,5,6,7-tetrahydro-1H-indol-3-carboxamide methanesulfonate]
Hygroscopicity [1]: Strong hygroscopicity (hygroscopic weight gain was not less than 15%)
solubility at 30 min [2]: 12.3 mg/mL

CCN(CC)CCNC(=O)c1c(C)[nH]c2c1CCC/C2=C1/C(=O)Nc2ccc(F)cc21.Cc1ccc(S(=O)(=O)O)cc1 [P-toluenesulfonate, (Z)—N-[2-(diethylamino)ethyl]-2-methyl-7-(1,2-dihydro-5-fluoro-2-oxo-3H-indol-3-ylidene)-4,5,6,7-tetrahydro-1H-indol-3-carboxamide p-toluenesulfonate]
Hygroscopicity [1]: Slight hygroscopicity (hygroscopic weight gain was less than 2% and not less than 0.2%)
solubility at 30 min [2]: 0.419 mg/mL

CCN(CC)CCNC(=O)c1c(C)[nH]c2c1CCC/C2=C1/C(=O)Nc2ccc(F)cc21.O=P(O)(O)O [Phosphate, (Z)—N-[2-(diethylamino)ethyl]-2-methyl-7-(1,2-dihydro-5-fluoro-2-oxo-3H-indol-3-ylidene)-4,5,6,7-tetrahydro-1H-indol-3-carboxamide phosphate]
AUC(0-t) [3]: 322 ng·h/mL
Hygroscopicity [1]: Slight hygroscopicity (hygroscopic weight gain was less than 2% and not less than 0.2%)
solubility at 30 min [2]: 29.7 mg/mL

CCN(CC)CCNC(=O)c1c(C)[nH]c2c1CCC/C2=C1/C(=O)Nc2ccc(F)cc21.O=C(O)CCC(=O)O [Succinate, (Z)—N-[2-(diethylamino)ethyl]-2-methyl-7-(1,2-dihydro-5-fluoro-2-oxo-3H-indol-3-ylidene)-4,5,6,7-tetrahydro-1H-indol-3-carboxamide succinate]
Hygroscopicity [1]: Slight hygroscopicity (hygroscopic weight gain was less than 2% and not less than 0.2%)
solubility at 30 min [2]: 13.4 mg/mL

CCN(CC)CCNC(=O)c1c(C)[nH]c2c1CCC/C2=C1/C(=O)Nc2ccc(F)cc21.O=S(=O)(O)O [Sulfate, (Z)—N-[2-(diethylamino)ethyl]-2-methyl-7-(1,2-dihydro-5-fluoro-2-oxo-3H-indol-3-ylidene)-4,5,6,7-tetrahydro-1H-indol-3-carboxamide sulfate]
Hygroscopicity [1]: Slight hygroscopicity (hygroscopic weight gain was less than 2% and not less than 0.2%)
solubility at 30 min [2]: 0.236 mg/mL

(Z)—N-[2-(diethylamino)ethyl]-2-methyl-7-(1,2-dihydro-5-fluoro-2-oxo-3H-indol-3-ylidene)-4,5,6,7-tetrahydro-1H-indol-3-carboxamide L-mandelate
Hygroscopicity [1]: Hygroscopicity (hygroscopic weight gain was less than 15% and not less than 2%)
Solubility in Water [2]: 14.7218 mg/mL
